Measured values as given in patent US20030109529A1, “Use of s-triazines for treating Apicomplexan parasitic infections” (priority 1999, published 2003).

Experiments:
[1] = tested on: antifolate-resistant P. falciparum; test: In vitro RBC culture, antifolate-resistant P. falciparum; assay type: cell-based, Plasmodium falciparum; conditions: Example 4, 48 hrs or 96 hrs after treatment
Protocol: (§1) Briefly, a red blood cell suspension at a malarial (wild type Plasmodium falciparum) infection rate of approximately 1% was added to each well of a 96 well micro titer plate. The test compound was added to the cultures at final concentrations of 2.0, 0.2 or 0.02 μM. and incubated in an environment of 5% CO2, 5% O2 and 90% N2 at 37° C. Every 24 hrs the dish was removed, 100 μl of spent medium removed and 100 μl of fresh, compound containing-medium was added back to each well. This procedure was repeated daily.
(§2) At 48 hrs and again at 96 hrs, blood smears were made from each well and 500 Red Blood Cells (RBCs) were counted and inspected for malarial infection. The percent infection rate was then determined for each experimental condition tested.
The procedure set forth in Example 1 is utilized for testing the effectiveness of triazine and atrazine against antifolate-resistant P. falciparum.

[2] = tested on: wild type Plasmodium falciparum; test: In vitro red blood cell culture infected with wild type Plasmodium falciparum, percent RBCs infected; assay type: cell-based; conditions: 48 hrs of treatment; for Red Blood Cell Infection Rate: control 35%; for effectiveness compared with chloroquine (text to Table 2): 2.0-0.02 μM
Protocol: The in vitro method used to test the anti-malarial effectiveness of various s-triazines was adapted from Trager, 1994, Methods in Cell Biology Vol 45:7-26.
as §1, §2
Malaria parasite (P. falciparum) was grown in culture as described previously. At 48 hours and 96 hours of treatment, red blood cells were taken from culture and the percent red blood cells infected with the parasite was determined by microscopic examination.
The data in Table 2 represent percent red blood cell (RBC) infection rate at 48 hrs of treatment with the antimalarial test compound. Control cultures were 35% RBC infected.

Row | Structure (SMILES) | percentage of RBCs infected with antifolate-resistant P. falciparum [1] | Red Blood Cell Infection Rate ([2]; 0.02 μM) [%] | Red Blood Cell Infection Rate ([2]; 0.2 μM) [%] | Red Blood Cell Infection Rate ([2]; 2.0 μM) [%] | effectiveness compared with chloroquine (text to Table 2) [2]
1 | c1ncncn1 [triazine] | significantly higher level of RBCs being infected | – | – | – | –
2 | CCNc1nc(NC(C)C)nc(SC)n1 [ametryn, 2-ethylamino-4-isopropylamino-6-thiomethoxy-s-triazine] | – | 20 | 11 | 10 | less effective
3 | CC(C)Nc1nc(Cl)nc(NC(C)C)n1 [propazine, 2-chloro-4,6-di(isopropylamino)-s-triazine] | – | 5 | 1 | 1 | substantially similar in effectiveness as chloroquine
4 | CCNc1nc(Cl)nc(NCC)n1 [simazine, 2-chloro-4,6-di(ethylamino)-s-triazine] | – | 3 | 0 | 0 | substantially similar in effectiveness as chloroquine
